Measured values as given in US20080131310A1, “Methods for determining effectiveness of waste water tank deodorizers and synthetic waste compositions for use in said methods” (Fuller Brush Company, Inc., priority 2006, published 2008).
Marks after values point to notes of the source that are not given here.

Tested on: Escherichia coli strain K12 (ATCC 25253)
Assay: Inhibitive evaluation: hydrogen sulfide generation in synthetic waste water media inoculated with E. coli
Format: cell-based
Conditions: for H2S in ppm vs. contact times, 24 Hours: 24 hours contact time; for H2S in ppm vs. contact times, 48 Hours: 48 hours contact time; for H2S in ppm vs. contact times, 72 Hours: 72 hours contact time
Experimental: An experiment was conducted to evaluate the effectiveness of recreational vehicle (Black) waste water tank deodorizer in preventing […] degradation processes that result in unpleasant odors. The effectiveness of the tank deodorizer was evaluated through the inhibition of growth using an E. Coli within a synthetic waste water media. This comparison of the respective products inhibition was over selected time periods from 5 to 7 days.
500 grams total of synthetic soil media was prepared having the following ingredients:
RV biodegradable toilet paper (small pieces) . . . 5.0 g • With the exception of the oatmeal and toilet paper, the above ingredients were mixed together and heated to 55° C. with constant mixing for 15 to 20 minutes. The oatmeal and toilet paper were then added and thoroughly mixed in. Mixture is allowed to cool to room temperature, then transferred to the waste water tank/digester test vessel.
Escherichia coli strain K12 (ATCC 25253) was employed.
1. To build up the count of microbes, using a 48-hour Nutrient Broth culture incubated at 37° C. of the E. Coli or other selected organism, the culture must be on at least the fourth consecutive 24-hour transfer before using. Have one tube of the 48-hour culture available for each of the test vessels.
2. Before inoculating the surrogate black waste water tank test vessel containing the synthetic soil media, the number of organisms being utilized was verified to achieve a range no less than a count of log^8 per milliliter. Serial dilutions of the E. coli culture were prepared as follows:
a.) Tube • #1. 1.0 ml organism culture+9.0 ml Nutrient Broth=1/10 • #2. 1.0 ml tube #1 dilution+9.0 ml Nutrient Broth=1/10^−2 • #3. 1.0 ml tube #2 dilution+9.0 ml Nutrient Broth=1/10^−3 • #4. 1.0 ml tube #3 dilution+9.0 ml Nutrient Broth=1/10^−4 • #5. 1.0 ml tube #4 dilution+9.0 ml Nutrient Broth=1/10^−5 • #6. 1.0 ml tube #5 dilution+9.0 ml Nutrient Broth=1/10^−6 • #7. 1.0 ml tube #6 dilution+9.0 ml Nutrient Broth=1/10^−7 • #8. 1.0 ml tube #7 dilution+9.0 ml Nutrient Broth=1/10^−8 • *Note: each dilution was thoroughly mixed before transferring to the next tube. b.) Each dilution was plated by the pour plate method. 1.0 ml of dilution was plated with 10.0 ml TGY pour plate agar. Plates were incubated at 37° C. for 48 hrs before reading for enumeration.
3. Specified amounts of test subject deodorizer from the chart below were added to the test vessel containing the 500 grams of the synthetic soil media and mix thoroughly to assure uniform distribution.
4. 5.0 ml of the E. coli culture from step #1 were added to the test vessel and thoroughly mixed to assure uniform distribution. This brought the organism count to a range to greater than 1.0×10^4 cfu/ml in the 500 g of synthetic soil media.
5. Caps were placed on the test vessels and the vessels were stored at a temperature of 80° F. during the 5 day or more evaluation period. Note: Tests may be performed at various temperatures at the discretion of the investigator. For example, 100° F. incubation may be used to reflect very high summer temperature test environments.
6. At 24 hrs contact time, handling was in such a manner as to minimize movement of the container and sewage inside. The cap was quickly removed from the test vessel and the holding cradle containing the H2S monitor was placed over the mouth of the test vessel for 4 minutes. During the 4 minute testing period the container was maintained as still as possible. • *Note: monitor must be zeroed before each reading taken.
7. After 4 minute of testing was completed, the monitor and cradle were removed from the mouth of the vessel and the cap replaced. Peak gas readings in ppm of H2S were recorded. Steps 6 & 7 were repeated for each test vessel in set.
8. Steps (6-7) were repeated for each of the remaining contact times of 48 hrs, 72 hrs, 96 hrs, 120 hrs. It should be noted that other times could be adopted for standardization of the protocol and that these times are simply preferred. […]

[1] = 0.78 ml/500 g synthetic soil media (8 oz per 40 gal tank), 80° F., peak head space reading, >5 ppm unacceptable

Row | Compound | H2S in ppm vs. contact times, 24 Hours [1] [ppm] | H2S in ppm vs. contact times, 48 Hours [1] [ppm] | H2S in ppm vs. contact times, 72 Hours [1] | H2S in ppm vs. contact times, 96 Hours (96 hours contact time, 0.78 ml/500 g synthetic soil media (8 oz per 40 gal tank), 80° F., peak head space reading, >5 ppm unacceptable) [ppm] | H2S in ppm vs. contact times, 120 Hours (120 hours contact time, 0.78 ml/500 g synthetic soil media (8 oz per 40 gal tank), 80° F., peak head space reading, >5 ppm unacceptable) [ppm] | Performance in H2S inhibition compared with the Aqua Kem control (over 120 hours, 0.78 ml/500 g synthetic soil media)
1 | C1N2CN3CN1CN(C2)C3 [Hexamethylene-Tetramine] | 2 | 2 | 48* ppm | – | – | –
2 | O=[N+]([O-])C(Br)(CO)CO [Bronopol, 2-bromo-2-nitropropane-1,3-diol] | 0 | 0 | 0 ppm | 0 | 0 | The * indicates when each active had reached the unacceptable level of odor value. The two best performing actives that were equal to or near the performance of the Aqua Kem control were the Bronopol and Neolone M-10.
